Data reported in article PMC11910216, “Targeting ubiquitin-independent proteasome with small molecule increases susceptibility in pan-KRAS–mutant cancer models” (The Journal of Clinical Investigation, 2025).
Values joined by “and” are separate entries in the source; they are usually repeats but may differ in a detail not shown here. Identical values can stand only once.

What was measured:
PC3 cells = test: Cell viability assay (CCK-8); type: cell-based; conditions: Homo sapiens, PC-3; PC3, Prostate; Supplemental Table 4
Procedure: (§3) Cells were seeded into 96-well plates at a density of 1,500 cells per well. Cells were then cultivated at 37°C for different periods (0 hours, 24 hours, 48 hours, 72 hours, 96 hours). Upon measurement, 10 μL CCK-8 (Yeasen, 40203ES80) mixed with 100 μL serum-free medium was added to each well and incubated for 1 hour at 37°C. Plates were shaken, and optical density values were determined at 450 nm using a microplate reader (BioTek, Synergy Neo2).

H358 cells = test: Colony formation assay, RLY01 and AMG510; type: cell-based, human
Procedure: Cells were equally seeded into 12-well plates at a density of 2,000 cells per well. Cultivated for 6–10 days, cells were fixed with 4% polyoxymethylene and stained with 0.2% crystal violet. Images of stained colonies were taken, and the numbers of the colonies were recorded and compared within different groups. Each experiment was representative of at least 3 independent experiments. […]
by using CompuSyn software (Version 1). The averages and error bars represent the mean ± SEM from three independent experiments. (E-H) Representative colony formation images of Calu1, Calu1- KRASG13D and Calu1- KRASY96D cells (E) and H358, H358- KRASG13D and H358- KRASY96D cells (G) cell with or without RLY01 and AMG510 treatment. The relative viability of cultured colonies in these cells (mentioned in E and G) are shown in F and H. The percent cell viability is relative to the untreated controls. Each value represents mean ± SEM (n = 3). *p < 0.05, **p < 0.01, ***p < 0.001, ****p < 0.0001; p values were measured by two-way ANOVA with Tukey’s multiple-comparisons test.

Capan-2 cells = test: Apoptosis, annexin V and propidium iodide flow cytometry; type: cell-based, human; set-up: key: % of apoptotic (Annexin V positive) cells
Procedure: (§1) The Apoptosis Detection Kit (MultiSciences Biotech Co. Ltd.) was used to detect cell death according to the manufacturer’s protocol. After RLY01 treatment, both attached and floating cells were harvested, washed with PBS, suspended in binding buffer, stained in annexin V–allophycocyanin (APC) and propidium iodide (PI), and analyzed by flow cytometry. For each experiment, 1 × 10^6 cells/mL were analyzed by the flow cytometer (BD Biosciences) and analyzed with FlowJo v10.8.1 (BD Biosciences).
(§2) Supplemental Figure 8. RLY01 suppresses the clonogenic growth and induces cell apoptosis, related to F i g u re 6. (A) Representative colony formation images after treatment with RLY01 at their respective 1/4 IC50 (Low), IC50 (High) in HCT116- WT, HCT116-shREGγ cells. (B) H460 and Capan -2 (KRAS-MUT) cells were treated with RLY01 for 48 h, and the percentage of apoptotic cells (Annexin positive) was determined by Annexin- V and propidium iodide staining. Each value represents mean ± SEM (n = 3). ****p < 0.0001; p values were measured by two-way ANOVA with Tukey’s multiple-comparisons test.

H460 cells = test: as above; type: cell-based, human; set-up: key: % of apoptotic (Annexin V positive) cells
Procedure: as §1, §2

A427 cells = test: Cell viability assay (CCK-8); type: cell-based; conditions: Homo sapiens, A-427; A427, Lung; Supplemental Table 4
Procedure: as §3

T24 cells = test: Cell viability assay (CCK-8); type: cell-based; conditions: Homo sapiens, T-24; T24, Bladder; Supplemental Table 4
Procedure: as §3

H3122 cells = test: Cell viability assay (CCK-8); type: cell-based; conditions: Homo sapiens, NCI-H3122; H3122, Lung; Supplemental Table 4
Procedure: as §3

SW620 cells = test: Cell viability assay (CCK-8); type: cell-based; conditions: Homo sapiens, SW-620; SW620, Colon; Supplemental Table 4
Procedure: as §3

LoVo cells = test: Cell viability assay (CCK-8); type: cell-based; conditions: Homo sapiens; LoVo (KRAS-MUT); 72 hours
Procedure: as §3

[1] = test system: ubiquitination levels, polyubiquitination of p21; test: Ubiquitination detection / p21 immunoprecipitation; type: cell-based, human; conditions: 5 μM, 8 hours
Procedure: Protein extracts were loaded onto SDS polyacrylamide gels. Gels were transferred onto nitrocellulose membranes, and the membranes were blocked for 1 hour. After overnight incubation with primary antibody at 4°C, the membranes were washed and probed with fluorescent IRDye 800 CW goat anti-rabbit IgG (1:10,000), IRDye 800 CW goat anti-mouse (1:10,000), and IRDye 680 RD goat anti-mouse IgG (1:5,000) antibodies (Cell Signaling Technology). The membranes were then imaged with the Odyssey Infrared Imaging System (LI-COR Biosciences). The primary antibodies used were mouse anti–β-actin (MBL, M177-3), rabbit anti-REGγ (Abcam, ab157157), rabbit anti-KRAS (Abcam, ab275876), rabbit anti-NRF2 (Abcam, ab137550), mouse anti-GAPDH (Proteintech, 60004-1-Ig), anti-FLAG tag (Solarbio, K200001M), anti-HA tag (Abcam, ab9110), rabbit anti-α7 (Abcam, ab133502), rabbit anti-LATS1 (Cell Signaling Technology, 3477), rabbit anti-IκBε (Abcam, ab13413), rabbit anti-p16 (Proteintech, 10883-1-AP), mouse anti-p21 (BD Biosciences, 612234), rabbit anti-PARP (Cell Signaling Technology, 9542), and rabbit anti–caspase-3 ([…], 9662).
Cells were washed with PBS and lysed with RIPA lysis buffer (50 mM Tris-HCl [pH 7.5], 150 mM NaCl, 1% NP-40, and 0.1% SDS). Cell lysates were then centrifuged for 20 minutes at 13,400g at 4°C. […]

Colo320 cells = test: Cell viability assay (CCK-8); type: cell-based; conditions: Homo sapiens, COLO 320; Colo320, Colon; Supplemental Table 4
Procedure: as §3

Calu1 cells = test: Cell viability assay (CCK-8); type: cell-based; conditions: Homo sapiens, Calu-1; Calu1 (KRAS-MUT); 72 hours
Procedure: as §3

In the case of `COc1ccc(C2C(C#N)=C(N)Oc3[nH]ncc32)cc1COc1ccc(Cl)cc1` (centres unmarked) [RLY01], the IC50 (PC3 cells) is reported as 12.9 µM, the “colony formation relative to DMSO” value (H358 cells) is reported as 21.916 and 27.6938 and 25.4026 and the “apoptosis (flow cytometry)” value (Capan-2 cells; Capan-2, High dose) is reported as 43 and 42.55 and 42.1. For the same compound, the “apoptosis (flow cytometry)” value (Capan-2 cells; Capan-2, Low dose) was 8.92 and 9.03 and 9.4, the “apoptosis (flow cytometry)” value (Capan-2 cells; Capan-2, Medium dose) was 14.03 and 14.04 and 13.83 and the “apoptosis (flow cytometry)” value (H460 cells; H460, High dose) was 57.16 and 57.98 and 55.96. The “apoptosis (flow cytometry)” value (H460 cells; H460, Low dose) was 26.1 and 25.06 and 25.52, the “apoptosis (flow cytometry)” value (H460 cells; H460, Medium dose) was 39.95 and 39.09 and 39.14 and the IC50 (A427 cells) was 13.8 µM. It also gave an IC50 (T24 cells) of 9.9 µM, an IC50 (H3122 cells) of 31.8 µM and an IC50 (SW620 cells) of 5.97 µM. For the same compound, the IC50 (LoVo cells) was 11.8 µM, the “polyubiquitination level of p21” value ([1]; anti-p21 immunoprecipitation) was “did not alter the polyubiquitination level of p21” and the ubiquitination levels ([1]; HCT116-WT cells) was “did not affect ubiquitination levels”. For the same compound, the IC50 (Colo320 cells) was 26.4 µM and the IC50 (Calu1 cells) was 10.3 µM.
